Among the data in ChEMBL document CHEMBL4371087, “Development of novel liver X receptor modulators based on a 1,2,4-triazole scaffold” (Bioorg Med Chem Lett, 2019) are Emax, Ratio EC50 and EC50 values, retold here.

Structures are written as SMILES. The source made the active and inactive calls. No cut-off for these calls is given here.

Common to all, as to type: cell-based
Assay [1] addresses T1, Oxysterols receptor LXR-alpha (Homo sapiens) (UniProt Q13133).
T1 sequence (whole entry): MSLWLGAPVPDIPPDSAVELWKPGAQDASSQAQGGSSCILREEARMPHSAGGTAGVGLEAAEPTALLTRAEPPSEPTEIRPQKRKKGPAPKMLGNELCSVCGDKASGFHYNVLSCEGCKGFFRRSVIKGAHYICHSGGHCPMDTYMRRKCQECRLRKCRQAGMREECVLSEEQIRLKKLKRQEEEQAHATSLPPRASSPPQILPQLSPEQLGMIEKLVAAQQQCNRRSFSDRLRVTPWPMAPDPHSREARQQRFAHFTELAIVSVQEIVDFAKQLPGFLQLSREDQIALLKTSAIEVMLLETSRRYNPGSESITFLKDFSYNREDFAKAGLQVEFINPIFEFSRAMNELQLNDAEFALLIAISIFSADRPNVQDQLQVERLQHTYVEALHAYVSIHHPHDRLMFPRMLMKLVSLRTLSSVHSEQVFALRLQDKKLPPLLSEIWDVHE
The assay can be described thus: Agonist activity at full length human LXRalpha expressed in HEK293 cells harboring LXRE-Luc promoter at 10 uM by luciferase reporter gene assay relative to T0901317.

Assay [2] is filed under the species Homo sapiens. The assay can be described thus: Selectivity ratio of EC50 for full length human LXRalpha expressed in HEK293 cells to EC50 for full length human LXRbeta expressed in HEK293 cells.
Assay [3] concerns the target T2, Oxysterols receptor LXR-alpha (Homo sapiens, UniProt Q13133).
T2 sequence (Q13133 whole entry): T1 sequence (whole entry)
Nature of the assay: Agonist activity at full length human LXRalpha expressed in HEK293 cells harboring LXRE-Luc promoter by luciferase reporter gene assay.

In assay [4] the target is T3, Oxysterols receptor LXR-beta (Homo sapiens) (UniProt P55055).
T3 sequence (whole entry): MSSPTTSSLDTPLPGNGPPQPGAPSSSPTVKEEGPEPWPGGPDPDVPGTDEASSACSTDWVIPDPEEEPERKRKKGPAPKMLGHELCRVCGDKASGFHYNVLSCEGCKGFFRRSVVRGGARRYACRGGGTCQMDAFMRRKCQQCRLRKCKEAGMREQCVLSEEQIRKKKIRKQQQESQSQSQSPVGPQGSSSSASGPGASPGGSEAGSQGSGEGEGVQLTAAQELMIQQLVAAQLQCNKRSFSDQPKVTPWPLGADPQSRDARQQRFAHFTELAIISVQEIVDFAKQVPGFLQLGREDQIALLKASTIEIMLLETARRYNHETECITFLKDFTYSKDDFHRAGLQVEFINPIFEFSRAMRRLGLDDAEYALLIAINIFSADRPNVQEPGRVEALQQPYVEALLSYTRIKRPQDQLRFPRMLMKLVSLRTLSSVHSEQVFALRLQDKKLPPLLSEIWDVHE
Nature of the assay: Agonist activity at full length human LXRbeta expressed in HEK293 cells harboring LXRE-Luc promoter at 10 uM by luciferase reporter gene assay relative to T0901317. Background: Reporter assays use an easily measured gene product as a stand-in for the process of interest.

Assay [5] concerns the target T4, Oxysterols receptor LXR-beta (Homo sapiens, UniProt P55055).
T4 sequence (P55055 whole entry): T3 sequence (whole entry)
Nature of the assay: Agonist activity at full length human LXRbeta expressed in HEK293 cells harboring LXRE-Luc promoter by luciferase reporter gene assay.

Take `CC(=O)n1nc(-c2ccc(C)cc2)nc1-c1ccccc1`: the Emax (in general, the size of the effect at its maximum, as opposed to the concentration needed) in assay [1] came out at 53%; in assay [4], 62%. Besides, the Ratio EC50 in assay [2] was determined as 0.65. The EC50 (commonly the midpoint of the concentration-response curve) is 228 nM in assay [3] and 351 nM in assay [5].

Regarding `COc1cccc(-c2nc(-c3ccccc3)n(Cc3ccccc3)n2)c1`, the Emax was determined as 62% in assay [1] and 69% in assay [4]. Further, the Ratio EC50 in assay [2] was found to be 0.38. Also, the EC50 turned out to be 903 nM in assay [3] and 2360 nM in assay [5].

`CCn1nc(-c2ccc(Cl)cc2)nc1-c1ccccc1` returned an Emax in assay [1] of 60%. This compound also displayed an EC50 in assay [3] of 2290 nM. In addition, in assay [4], the Emax entry is “inactive”.

As for `Clc1ccccc1-c1n[nH]c(Cc2ccccc2)n1`, the Emax was found to be 46% in assay [1] and 61% in assay [4]. The Ratio EC50 in assay [2] was 0.59. The values for the EC50 in assay [3] and in assay [5] were 570 nM and 966 nM, respectively.

As for `Cn1nc(-c2ccccc2)nc1-c1ccccc1`, the Emax in assay [1] was 64%; in assay [4] it was 71%. For the same compound, in assay [2], the Ratio EC50 was determined as 0.94. Also, the half-maximal effective concentration (EC50) in assay [3] is 2470 nM; in assay [5] it was 2640 nM.

As to `CCn1nc(-c2ccc(Br)cc2)nc1-c1ccccc1`, the Emax in assay [1] is 45%; in assay [4], 71%. For the same compound, the Ratio EC50 in assay [2] is 0.4. For the same compound, the EC50 is 2240 nM in assay [3] and 5650 nM in assay [5].

As for `c1ccc(-c2nc(-c3ccccc3)n(C3CC3)n2)cc1`, the Emax entry in assay [1] and in assay [4] was “inactive” each time.

Consider `Cc1ccc(-c2n[nH]c(-c3ccccc3)n2)cc1`, for which the Emax in assay [1] is 62%; in assay [4], 73%. For the same compound, the Ratio EC50 in assay [2] turned out to be 0.91. Further, the EC50 in assay [3] turned out to be 77 nM; in assay [5] it was 85 nM.

For the compound `CCCCn1nc(-c2ccc(Cl)cc2)nc1-c1ccccc1`, the Emax entry in assay [1] and in assay [4] was “inactive” in each case.

Regarding `CC(=O)n1nc(Cc2ccccc2)nc1-c1ccccc1`, the Emax was 50% in assay [1] and 68% in assay [4]. The Ratio EC50 in assay [2] came out at 0.49. Besides, the EC50 in assay [3] amounted to 701 nM; in assay [5], 1420 nM.

Consider `Cc1ccc(S(=O)(=O)n2nc(-c3ccccc3)nc2-c2ccccc2)cc1`, for which the Emax in assay [1] is 75%; in assay [4], 81%. Further, the Ratio EC50 in assay [2] turned out to be 6.58. The EC50 in assay [3] turned out to be 1700 nM; in assay [5], 259 nM.

`CCn1nc(-c2ccccc2)nc1-c1ccccc1`: the Emax entry in assay [1] and in assay [4] was “inactive” throughout.

Turning to `COc1cccc(-c2nc(-c3ccccc3)n(C(C)=O)n2)c1`, the figures for the Emax in assay [1] and in assay [4] were 62% and 78%, respectively. In addition, the Ratio EC50 in assay [2] came out at 1.06. Further, the EC50 in assay [3] amounted to 115 nM; in assay [5] it was 109 nM.

For the compound `Clc1ccccc1-c1n[nH]c(-c2ccccc2)n1`, the EC50 in assay [3] came out at 526 nM; in assay [5] it was 640 nM.

For the compound `Cn1nc(-c2ccc(Cl)cc2)nc1-c1ccccc1`, the Emax in assay [1] was determined as 77%; in assay [4] it was 83%. Also, the Ratio EC50 in assay [2] came out at 0.6. The EC50 in assay [3] was determined as 1190 nM; in assay [5], 1990 nM.

Take `CC(=O)n1nc(-c2ccccc2)nc1-c1ccccc1`: the EC50 in assay [3] was 396 nM; in assay [5] it was 232 nM.

With `c1ccc(-c2n[nH]c(-c3cccnc3)n2)cc1`, the Emax result in assay [1] and in assay [4] was “inactive” in each case.

Regarding `COc1cccc(-c2n[nH]c(-c3ccccc3)n2)c1`, the maximal effect (Emax) was 60% in assay [1] and 72% in assay [4]. The Ratio EC50 in assay [2] was 1.59. The EC50 in assay [3] amounted to 108 nM; in assay [5] it was 68 nM.

Take `COc1cccc(-c2nc(-c3ccccc3)n(S(=O)(=O)c3ccc(C)cc3)n2)c1`: the Emax entry in assay [1] and in assay [4] was “inactive” throughout.

With `Clc1ccc(-c2n[nH]c(-c3ccccc3)n2)cc1`, the values for the Emax in assay [1] and in assay [4] were 51% and 60%, respectively. The Ratio EC50 in assay [2] came out at 1.26. In addition, the EC50 in assay [3] came to 309 nM; in assay [5] it was 245 nM.

For `Brc1ccc(-c2nc(-c3ccccc3)n(Cc3ccccc3)n2)cc1`, the Emax amounted to 78% in assay [1] and 69% in assay [4]. Besides, the Ratio EC50 in assay [2] is 7.06. The EC50 in assay [3] turned out to be 5030 nM; in assay [5], 712 nM.

With `Brc1ccc(-c2n[nH]c(-c3ccccc3)n2)cc1`, the Emax was determined as 55% in assay [1] and 62% in assay [4]. The Ratio EC50 in assay [2] stood at 2.41. The EC50 stood at 164 nM in assay [3] and 68 nM in assay [5].

Regarding `c1ccc(Cc2nc(-c3ccccc3)n[nH]2)cc1`, the Ratio EC50 in assay [2] was 0.36. Further, the values for the EC50 in assay [3] and in assay [5] were 2200 nM and 6150 nM, respectively.

Compound `CCCCn1nc(-c2ccccc2)nc1-c1ccccc1` showed an Emax in assay [1] of 65%. In assay [3], this compound returned an EC50 of 2470 nM. The Emax result in assay [4] was “inactive”.

For the compound `c1ccc(-c2n[nH]c(-c3ccccc3)n2)cc1`, the EC50 was 142 nM in assay [3] and 1010 nM in assay [5].

Consider `Clc1ccc(-c2n[nH]c(Cc3ccccc3)n2)cc1`, for which the Emax entry in assay [1] was “inactive”. The compound further showed an Emax in assay [4] of 73%. This compound also yielded an EC50 in assay [5] of 2570 nM.

Consider `Clc1ccc(-c2nc(-c3ccccc3)n(Cc3ccccc3)n2)cc1`, for which the Emax in assay [1] came to 53%; in assay [4] it was 61%. Moreover, the Ratio EC50 in assay [2] came to 0.32. Further, the EC50 in assay [3] amounted to 2130 nM; in assay [5] it was 6710 nM.

With `Brc1ccccc1-c1n[nH]c(-c2ccccc2)n1`, the Emax in assay [1] came out at 52%; in assay [4], 67%. For the same compound, in assay [2], the Ratio EC50 came out at 0.79. Further, the EC50 in assay [3] worked out at 390 nM; in assay [5] it was 493 nM.

On to `c1ccc(Cn2nc(-c3ccccc3)nc2-c2ccccc2)cc1`, for which the Emax in assay [1] stood at 58%. A half-maximal effect in assay [3] (EC50) was put at 2180 nM. In assay [4], the Emax result is “inactive”.

Take `CC(=O)n1nc(-c2ccc(Br)cc2)nc1-c1ccccc1`: the EC50 in assay [3] came out at 113 nM; in assay [5], 231 nM.
